Experimental data: the NIST ThermoML archive (doi:10.1016/j.fluid.2010.07.011)
Numbers after ± are expanded uncertainties.

Assay: xn = mol fraction of the nth substance listed
Conditions: 101.33 kPa, Liquid, Vibrating tube method

CCCCCCC [heptane] + CCCCCCN
x2 = 0
Conditions | mass density [kg/m3]
288.15 K | 687.954 ± 0.18
293.15 K | 683.733 ± 0.18
298.15 K | 679.494 ± 0.18
303.15 K | 675.229 ± 0.18
308.15 K | 670.941 ± 0.18
313.15 K | 666.621 ± 0.18
318.15 K | 662.273 ± 0.18
323.15 K | 657.896 ± 0.19

CCCCCCN [1-hexanamine] + CCCCO
mass density [kg/m3]
Conditions | 288.15 K | 293.15 K | 298.15 K | 303.15 K | 308.15 K | 313.15 K | 318.15 K | 323.15 K
x2 = 0 | 768.637 ± 0.6 | 764.385 ± 0.59 | 760.128 ± 0.59 | 755.856 ± 0.59 | 751.573 ± 0.58 | 747.276 ± 0.58 | 742.962 ± 0.58 | 738.636 ± 0.57
x2 = 0.0503 | 771.284 ± 0.56 | 767.06 ± 0.56 | 762.826 ± 0.56 | 758.576 ± 0.56 | 754.314 ± 0.55 | 750.035 ± 0.55 | 745.737 ± 0.55 | 741.427 ± 0.54
x2 = 0.1108 | 774.579 ± 0.53 | 770.381 ± 0.52 | 766.172 ± 0.52 | 761.947 ± 0.52 | 757.705 ± 0.51 | 753.444 ± 0.51 | 749.165 ± 0.51 | 744.868 ± 0.51
x2 = 0.1615 | 777.172 ± 0.49 | 772.994 ± 0.49 | 768.799 ± 0.49 | 764.593 ± 0.49 | 760.366 ± 0.48 | 756.118 ± 0.48 | 751.85 ± 0.48 | 747.565 ± 0.48
x2 = 0.2004 | 779.327 ± 0.47 | 775.161 ± 0.47 | 770.98 ± 0.47 | 766.783 ± 0.46 | 762.567 ± 0.46 | 758.331 ± 0.46 | 754.072 ± 0.46 | 749.795 ± 0.46
x2 = 0.2455 | 781.707 ± 0.44 | 777.556 ± 0.44 | 773.386 ± 0.44 | 769.201 ± 0.44 | 764.996 ± 0.43 | 760.77 ± 0.43 | 756.52 ± 0.43 | 752.247 ± 0.43
x2 = 0.3004 | 784.53 ± 0.41 | 780.391 ± 0.41 | 776.235 ± 0.41 | 772.062 ± 0.41 | 767.867 ± 0.41 | 763.651 ± 0.4 | 759.41 ± 0.4 | 755.147 ± 0.4
x2 = 0.4 | 789.735 ± 0.36 | 785.619 ± 0.36 | 781.483 ± 0.35 | 777.33 ± 0.35 | 773.155 ± 0.35 | 768.956 ± 0.35 | 764.732 ± 0.35 | 760.481 ± 0.35
x2 = 0.4802 | 793.847 ± 0.32 | 789.75 ± 0.32 | 785.637 ± 0.32 | 781.501 ± 0.32 | 777.345 ± 0.32 | 773.162 ± 0.32 | 768.953 ± 0.31 | 764.717 ± 0.31
x2 = 0.6294 | 800.788 ± 0.25 | 796.75 ± 0.25 | 792.692 ± 0.25 | 788.612 ± 0.25 | 784.508 ± 0.25 | 780.377 ± 0.25 | 776.215 ± 0.25 | 772.02 ± 0.25
x2 = 0.6999 | 803.655 ± 0.22 | 799.656 ± 0.22 | 795.637 ± 0.22 | 791.594 ± 0.23 | 787.526 ± 0.23 | 783.429 ± 0.23 | 779.299 ± 0.23 | 775.138 ± 0.23
x2 = 0.75 | 805.487 ± 0.21 | 801.517 ± 0.21 | 797.53 ± 0.21 | 793.517 ± 0.21 | 789.481 ± 0.21 | 785.41 ± 0.21 | 781.306 ± 0.21 | 777.172 ± 0.21
x2 = 0.7997 | 807.332 ± 0.19 | 803.397 ± 0.19 | 799.441 ± 0.19 | 795.46 ± 0.19 | 791.45 ± 0.19 | 787.411 ± 0.19 | 783.336 ± 0.19 | 779.228 ± 0.2
x2 = 0.8495 | 808.927 ± 0.17 | 805.024 ± 0.17 | 801.1 ± 0.18 | 797.154 ± 0.18 | 793.178 ± 0.18 | 789.169 ± 0.18 | 785.123 ± 0.18 | 781.043 ± 0.18
x2 = 0.8994 | 810.567 ± 0.16 | 806.697 ± 0.16 | 802.808 ± 0.16 | 798.893 ± 0.16 | 794.95 ± 0.17 | 790.973 ± 0.17 | 786.956 ± 0.17 | 782.9 ± 0.17
x2 = 0.9504 | 812.092 ± 0.15 | 808.261 ± 0.15 | 804.406 ± 0.15 | 800.528 ± 0.15 | 796.618 ± 0.15 | 792.674 ± 0.15 | 788.687 ± 0.15 | 784.663 ± 0.16

CCCCO [butan-1-ol] + CCCCCCN
x1 = 1
Conditions | mass density [kg/m3]
288.15 K | 813.373 ± 0.14
293.15 K | 809.573 ± 0.14
298.15 K | 805.762 ± 0.14
303.15 K | 801.923 ± 0.14
308.15 K | 798.053 ± 0.14
313.15 K | 794.147 ± 0.14
318.15 K | 790.231 ± 0.14
323.15 K | 786.238 ± 0.15

CCCCCCN [1-hexanamine] + CCCCCCC
mass density [kg/m3]
Conditions | 288.15 K | 293.15 K | 298.15 K | 303.15 K | 308.15 K | 313.15 K | 318.15 K | 323.15 K
x1 = 0.0497 | 691.084 ± 0.18 | 686.872 ± 0.18 | 682.638 ± 0.19 | 678.375 ± 0.19 | 674.087 ± 0.19 | 669.766 ± 0.19 | 665.416 ± 0.19 | 661.034 ± 0.19
x1 = 0.0712 | 692.472 ± 0.19 | 688.259 ± 0.19 | 684.023 ± 0.19 | 679.762 ± 0.19 | 675.473 ± 0.19 | 671.155 ± 0.19 | 666.804 ± 0.2 | 662.428 ± 0.2
x1 = 0.1 | 694.376 ± 0.19 | 690.164 ± 0.19 | 685.929 ± 0.19 | 681.666 ± 0.2 | 677.379 ± 0.2 | 673.063 ± 0.2 | 668.716 ± 0.2 | 664.339 ± 0.2
x1 = 0.1394 | 697.059 ± 0.2 | 692.841 ± 0.2 | 688.603 ± 0.2 | 684.341 ± 0.2 | 680.052 ± 0.2 | 675.736 ± 0.2 | 671.39 ± 0.2 | 667.016 ± 0.21
x1 = 0.2017 | 701.458 ± 0.21 | 697.235 ± 0.21 | 692.989 ± 0.21 | 688.722 ± 0.21 | 684.431 ± 0.21 | 680.114 ± 0.22 | 675.766 ± 0.22 | 671.395 ± 0.22
x1 = 0.3011 | 708.825 ± 0.24 | 704.586 ± 0.24 | 700.331 ± 0.24 | 696.055 ± 0.24 | 691.758 ± 0.24 | 687.436 ± 0.24 | 683.088 ± 0.24 | 678.716 ± 0.24
x1 = 0.4001 | 716.491 ± 0.27 | 712.241 ± 0.27 | 707.974 ± 0.27 | 703.691 ± 0.27 | 699.388 ± 0.27 | 695.063 ± 0.27 | 690.714 ± 0.27 | 686.344 ± 0.27
x1 = 0.5105 | 725.411 ± 0.31 | 721.153 ± 0.31 | 716.879 ± 0.31 | 712.593 ± 0.31 | 708.285 ± 0.31 | 703.959 ± 0.3 | 699.61 ± 0.3 | 695.241 ± 0.3
x1 = 0.5996 | 732.829 ± 0.35 | 728.568 ± 0.34 | 724.292 ± 0.34 | 720.004 ± 0.34 | 715.698 ± 0.34 | 711.371 ± 0.34 | 707.026 ± 0.34 | 702.664 ± 0.34
x1 = 0.6802 | 739.756 ± 0.39 | 735.495 ± 0.39 | 731.219 ± 0.38 | 726.929 ± 0.38 | 722.623 ± 0.38 | 718.301 ± 0.38 | 713.958 ± 0.38 | 709.598 ± 0.38
x1 = 0.7495 | 745.832 ± 0.42 | 741.569 ± 0.42 | 737.294 ± 0.42 | 733.009 ± 0.42 | 728.705 ± 0.42 | 724.386 ± 0.42 | 720.046 ± 0.41 | 715.689 ± 0.41
x1 = 0.7984 | 750.175 ± 0.45 | 745.914 ± 0.45 | 741.641 ± 0.45 | 737.357 ± 0.45 | 733.056 ± 0.45 | 728.74 ± 0.45 | 724.406 ± 0.44 | 720.058 ± 0.44
x1 = 0.8484 | 754.693 ± 0.49 | 750.434 ± 0.48 | 746.164 ± 0.48 | 741.883 ± 0.48 | 737.584 ± 0.48 | 733.272 ± 0.47 | 728.943 ± 0.47 | 724.594 ± 0.47
x1 = 0.8999 | 759.4 ± 0.52 | 755.143 ± 0.52 | 750.877 ± 0.52 | 746.597 ± 0.51 | 742.304 ± 0.51 | 737.996 ± 0.51 | 733.672 ± 0.51 | 729.332 ± 0.5
x1 = 0.9467 | 763.694 ± 0.56 | 759.441 ± 0.55 | 755.177 ± 0.55 | 750.901 ± 0.55 | 746.613 ± 0.54 | 742.31 ± 0.54 | 737.99 ± 0.54 | 733.656 ± 0.54
x1 = 1 | 768.637 ± 0.6 | 764.385 ± 0.59 | 760.128 ± 0.59 | 755.856 ± 0.59 | 751.573 ± 0.58 | 747.276 ± 0.58 | 742.962 ± 0.58 | 738.636 ± 0.57
